Source: patent US20110052667A1, “COMPOSITIONS AND METHODS FOR INHIBITING ANGIOGENESIS AND TUMORIGENESIS” (Sylgen Laboratories, Inc., priority 2007, published 2011)
“Also recorded” adds a separate entry of the source.

Columns and labels:
human EphB4 promoter [1] = test: EphB4 promoter luciferase reporter assay in R+ cells (mouse embryo fibroblasts expressing human IGF-I receptor); type: cell-based
From the text: The TAAT motif at position −1365 of the −1500/−7mut construct used in conditions 7-9 was substituted with a TGCT motif by site directed mutagenesis. In FIG. 2, Series 1: Firefly Luciferare signal (pGL3-Luc EphB4 constructs); Seies 2: Renilla Luciferase signal (mock vector); and RLU: Relative Luciferase Units. Conditions: 1-3: −7/−1508 EphB4 promoter region; 4-6: −7/−1028 EphB4 promoter region; 7-9: −7/−1508mut EphB4 promoter construct, wherein: 1. Serum Free, EphB4 promoter −7/−1508; 2. IGF-II, 10 nM, EphB4 promoter −7/−1508; 3.10% FBS, EphB4 promoter −7/−1508; 4. Serum Free, EphB4 promoter −7/−1028; 5. IGF-II, 10 nM, EphB4 promoter −7/−1028; 6.10% FBS, EphB4 promoter −7/−1028; 7. Serum Free, EphB4 promoter −7/−1508mut; 8. IGF-II, 10 nM, EphB4 promoter −7/−1508mut; and 9.10% FBS, EphB4 promoter −7/−1508mut.
In order to establish the role of IGF-II on EphB4 expression, a mouse embryo fibroblast cell line expressing the human IGF-I receptor (R^+ cells) was transiently transfected with three variants of the human EphB4 promoter previously described by Bruhl et al., supra, along with trace amounts of a renilla luciferase mock vector. […] Cell lysates were generated and then assayed for Luciferase activity using a Promega Dual luciferase assay and a Veritas Luminescence reader (Biotek).

human EphB4 promoter [2] = test: EphB4 promoter luciferase reporter assay in R-InsR-A cells (IGF-IR null embryo fibroblasts expressing human InsR-A); type: cell-based; details: IGF-II 10 nM
Method: In FIG. 3, Series 1: Firefly Luciferare signal (pGL3-Luc −1508/−7 EphB4 construct); Series 2: Renilla Luciferase signal (mock vector); and RLU=Relative Luciferase Units. Conditions: 1. R^+ cells (IGF-IR^+); Serum Free, EphB4 promoter −7/−1508; 2. R^+ cells (IGF-IR^+); IGF-II, 10 nM, EphB4 promoter −7/−1508; 3. R-IRA cells (InsR-A^+); Serum Free, EphB4 promoter −7/−1508; 4. R-IRA cells (InsR-A^+); IGF-II, 10 nM, EphB4 promoter −7/−1508.
In order to establish the role of IGF-II on EphB4 expression, a mouse embryo fibroblast cell line expressing the human IGF-I receptor (R^+ cells) was transiently transfected with three variants of the human EphB4 promoter previously described by Bruhl et al., supra, along with trace amounts of a renilla luciferase mock vector. 24 hrs post-trasfection, the cells were serum starved for 12 hrs and then stimulated (or not) with 10 nM IGF-II for 8 hrs. Cell lysates were generated and then assayed for Luciferase activity using a Promega Dual luciferase assay and a Veritas Luminescence reader (Biotek). […]

In the case of “IGF-II: Insulin-like growth factor-II, used at 10 nM to stimulate cells carrying EphB4 promoter reporter constructs”, the “EphB4 reporter gene activation, promoter with -1500 to -1028 region deleted (-1028 to -7 construct)” value (human EphB4 promoter [1]; 10 nM IGF-II) is reported as “but not when the −1500 to −1028 region is deleted”, the “EphB4 gene activation (reporter gene, full length promoter -1508 to -7)” value (human EphB4 promoter [1]; 10 nM IGF-II for 8 hrs, Dual luciferase assay, compared with serum (10% FBS)) is reported as “able to stimulate EphB4 gene activation at levels comparable to the ones obtained with serum activation; also recorded: causes the activation of the EphB4 reporter gene” and the “EphB4 gene activation (reporter gene, promoter -7/-1508) through InsR-A” value (human EphB4 promoter [2]) is reported as “comparable to that obtained through IGF-IR activation”.
